pIC50: −log10 of the molar value.
Legend:
CITED2 = assay: Immunoblotting of CITED2 protein; type: cell-based; details: 10-6250 nM, 4 hours, immunoblot
Method: (§1) Cells were plated in 100 mm^2 petri dishes at a density of 1×10^6 cells/plate and allowed to grow for 3-4 days until the cells reached 80% confluency. Cells were treated with THZ1 or with vehicle control (DMSO) prior to lysing cells in RIPA buffer containing protease inhibitor cocktail and PMSF. Protein concentration was determined using BCA assay (Pierce). All lysates were prepared in biological duplicates. Protein (50 μg) was resolved on 4-20% Express-Plus PAGE gels in Tris-MOPS (SDS) running buffer (GenScript), transferred to PVDF membranes and incubated at 4° C. overnight with primary antibodies: CDK7 (sc-529, SantaCruz), ER (sc-543, SantaCruz), HER2 (#4290, Cell Signaling Technology), RNA-Pol II-S2P (C152000005, Diagenode), RNA-Pol II-S5P C152000007, RNA-Pol II-S7P (04-1570, Millipore) and RNA-Pol II (sc-900X, SantaCruz), CITED2 (MAB5005, R+D Systems), Tubulin (T-9026, Sigma), followed by anti-rabbit (#31460, ThermoFisher Scientific), anti-mouse (31430, ThermoFisher Scientific) or anti-rat (AP136P, Millipore) secondary antibodies. Bands were visualized with Western Lighting Plus ECL detection reagent (Perkin Elmer) using ChemiDoc Touch™ (BioRad). Images were analyzed and densitometry performed using ImageLab software (Biorad).

[1] = test system: serum starved SKBR3 cells; assay: EGF stimulation; type: cell-based; details: 100 ng/ml EGF with 250 nM THZ1, 6 hours
Method: SKBR3 cells were seeded into duplicate 6-well plates and allowed to grow until 80% confluent. The cells were then washed with PBS and the media was replaced with serum-free media overnight. After serum starvation the cells were treated with 100 ng/ml EGF with or without 250 nM THZ1 for 6 hours then lysates were collected for both RNA and protein analysis.

breast cancer cell lines = assay: qPCR gene expression after THZ1; type: cell-based; details: 250 nM, 6 hours
Method: Cells were plated in 100 mm^2 petri dishes at a density of 1×10^6 cells/plate and allowed to grow for 3-4 days until the cells reached 80% confluency. Cells were treated with THZ1 or with vehicle control (DMSO). Total RNA was extracted using RNAeasy Mini Kit (Qiagen) and 1 μg of total RNA was used to generate cDNA using iScript cDNA synthesis kit (BioRad). Gene expression was quantified using iTaq Universal SYBR green super mix on a CFX384 Real time system (BioRad).

[2] = test system: breast cancer cell lines (TNBC, ER+HER2−, ER+HER2+ and ER−/HER2+); assay: Cell proliferation, 12-well plates, bright-field imaging; type: cell-based; details: 100 nM, seven days of treatment
Method: (§2) Cells were seeded in 12-well plates at densities ranging from 10000-30000 cells/well and after 24 hours cells were treated with 10, 40 and 100 nM THZ1 in triplicate. After 7 days the cells were imaged using Zeiss Axiovert 200 microscope using a 20× objective lens. Additionally, cells were plated in 96-well plates at a density of 2000 cells/well and after 24 hours treated with 0-10 μM THZ1. After 2 and 7 days the growth of the cells was measured by MTT assay.
The effects of different concentrations of THZ1 on breast cancer cell lines was examined. Cell lines included TNBC, ER+HER2−, ER+HER2+ and ER−/HER2+ and effects were studied over seven days of treatment.

T47D = details: fold change in gene expression, THZ1; cited from earlier work
[3] = test system: phosphorylation of RNA Pol II at S2, S5 and S7; assay: Immunoblotting of RNA Pol II phosphorylation; type: cell-based; details: increasing concentrations (10-6250 nM), 4 hours, multiple breast cancer cell lines
Method: as §1
The effects of increasing concentrations of THZ1 on the phosphorylation of RNA Pol II at S2, S5 and S7 was tested across multiple breast cancer cell lines. […]

549 = details: fold change in gene expression, THZ1; cited from earlier work
[4] = test system: panel of breast cancer cell lines; assay: Cell proliferation MTT assay, cell line panel; type: cell-based
Method: as §2
All results were presented as mean±standard deviation of 4-8 parallel assessments. Similar results were obtained from a minimum of two independent experiments. […] Densitometry was performed on duplicate immunoblots using ImageLab software (Biorad) and normalized to tubulin loading controls and then correlated with the THZ1 IC50 values of each cell line. Statistical analyses were performed using SPSS 18.0 (SPSS Inc). Bi-variant scatter graphs and Spearman rank analyses were performed to evaluate associations between protein levels, mRNA and response to inhibition. IC50 values were calculated for MTT assays using CompuSyn software.
To investigate the effect of CDK7 inhibition in a time and dose dependent manner, an extended panel of 11 breast cancer cell lines were screened for response to THZ1 after 2 and 7 days of treatment.

- difference in sensitivity determined by IC50 ([4]; most sensitive cell line SKBR3 vs least sensitive cell line JIMT-1): 25 fold
- pIC50 ([4]; two-day treatment, read-out: IC50 values of most cell lines): 6.52 to 7.00
Structure (SMILES): CN(C)C/C=C/C(=O)Nc1ccc(C(=O)Nc2cccc(Nc3ncc(Cl)c(-c4c[nH]c5ccccc45)n3)c2)cc1 [THZ1]
- protein expression of CITED2 (CITED2): significantly decreased
- EGF induction of CITED2 expression (mRNA) [1]: prevented
- EGF induction of mRNA expression of EGFR, MYC, CDKN1B, PLK2 and FOXC1 [1]: prevented
- EGF-induced increase of CITED2 protein [1]: prevented
- expression of SOX9 and STAT3 (breast cancer cell lines; MDA-MB-231 and T47D): not inhibited
- expression of CITED2, CDKN1B and PLK2 (breast cancer cell lines; majority of tested cell lines): significant decrease in expression
- expression of EGFR, MYC and FOXC1 (breast cancer cell lines; majority of the cell lines tested): significantly inhibited
- growth inhibition [2]: inhibited the growth of all tested cell lines regardless of subtype
- BAMBI T47D FC (T47D): −1.74
- CDKN1B T47D FC (T47D): −2.3
- CITED2 T47D FC (T47D): −2.71
- CYR61 T47D FC (T47D): −1.96
- DKK1 T47D FC (T47D): −1.09
- E2F8 T47D FC (T47D): −4.01
- ELF3 T47D FC (T47D): −1.22
- FADD T47D FC (T47D): −3.29
- FBXO5 T47D FC (T47D): −2.65
- MARS2 T47D FC (T47D): −2.3
- MOCS3 T47D FC (T47D): −3.86
- MYC T47D FC (T47D): −2.68
- NEDD9 T47D FC (T47D): −3.32
- PHLDA1 T47D FC (T47D): −3.81
- PIM3 T47D FC (T47D): −2.54
- PLK2 T47D FC (T47D): −2.48
- TRIB1 T47D FC (T47D): −2.31
- WEE1 T47D FC (T47D): −1.96
- ZNF217 T47D FC (T47D): −2.77
- ZNF627 T47D FC (T47D): −2.75
- phosphorylation of RNA Pol II at S2, S5 and S7 [3]: inhibited the phosphorylation of all three sites in a dose dependent manner
- BAMBI 549 FC 549: −2.97
- CDKN1B 549 FC 549: −3.06
- CITED2 549 FC 549: −4.12
- CYR61 549 FC 549: −2.96
- DKK1 549 FC 549: −5.01
- E2F8 549 FC 549: −3.09
- ELF3 549 FC 549: −1.11
- FADD 549 FC 549: −3.1
- FBXO5 549 FC 549: −4.09
- MARS2 549 FC 549: −3.73
- MOCS3 549 FC 549: −4.2
- MYC 549 FC 549: −3.06
- NEDD9 549 FC 549: −1.53
- PHLDA1 549 FC 549: −2.72
- PIM3 549 FC 549: −2.73
- PLK2 549 FC 549: −3.7
- TRIB1 549 FC 549: −4.07
- WEE1 549 FC 549: −2.95
- ZNF217 549 FC 549: −3.66
- ZNF627 549 FC 549: −3.39
